Source: publication PMC10466253, “Derivatives of 9-phosphorylated acridine as butyrylcholinesterase inhibitors with antioxidant activity and the ability to inhibit β-amyloid self-aggregation: potential therapeutic agents for Alzheimer’s disease” (Frontiers in Pharmacology, 2023)
Marks after values point to notes of the source that are not given here.

What was measured:
[1] = FRAP (ferric reducing antioxidant power) assay; settings: Trolox equivalents; 1 h, 37°C, pH 3.6
Method: The ferric reducing antioxidant power (FRAP) assay proposed by [Benzie and Strain (1996)]; [Benzie and Strain (1999)] modified to be performed in 96-well microplates as described in detail in [Makhaeva et al. (2020)] was used. 10 μL (0.5 mM) of the tested or reference compounds were mixed with 240 µL of FRAP reagent (2.5 mL of 10 mM TPTZ (2,4,6-tris(2-pyridyl)-s-triazine) solution in 40 mM HCl, 2.5 mL of 20 mM FeCl3 in distilled water and 25 mL of 0.3 M acetate buffer pH 3.6); the absorbance of the mixture was measured spectrophotometrically (λ = 593 nm) with a FLUOStar OPTIMA microplate reader at 600 nm after a 1 h incubation at 37°C against a blank. Trolox was used as a reference compound. The results were expressed as Trolox equivalents (TE)—the ratio of the concentrations of Trolox and the test compound resulting in the same effect on ferric reducing activity.

[2] = ABTS radical cation scavenging activity assay; settings: for ABTS•+-scavenging activity, TEAC: Trolox equivalent antioxidant capacity, ratio of slopes compound/Trolox; for IC50: concentration for 50% reduction of ABTS radical cation
Method: Radical scavenging activity of the compounds was evaluated using the ABTS radical cation (2,2ʹ-azinobis-(3-ethylbenzothiazoline-6-sulfonic acid), ABTS^•+) decolorization assay ([Re et al., 1999]), with minor modifications described in detail in [Makhaeva et al. (2019a)]. To prepare the solution of ABTS^•+, equal volumes of aqueous solutions of 7 mM ABTS and 2.45 mM potassium persulfate were incubated for 12–16 h at room temperature in the dark. Radical scavenging capacity of the compounds was determined by mixing 10 μL of compound solution in DMSO with 240 μL of ABTS^•+ working solution in ethanol (100 μM final concentration). The reduction in ABTS^•+ absorbance was measured spectrophotometrically at 734 nm using a xMark UV/VIS microplate spectrophotometer (Bio-Rad, Hercules, CA, United States) for 1 h with an interval of 10 min compared to a standard synthetic antioxidant Trolox (6-hydroxy-2,5,7,8-tetramethylchroman-2-carboxylic acid). Ascorbic acid was used as a positive control.
The antioxidant activity of the compounds was reported as Trolox equivalent antioxidant capacity (TEAC values) as the ratio of the slopes of the concentration−response curves, test compound/Trolox. The IC50 values for the test compounds were also determined.

Porcine liver CES = assay: In vitro inhibition of CES activity (spectrophotometric, 4-NPA substrate); type: biochemical; settings: compound concentration 20 µM; mean ± SEM, n = 3
Method: (§1) Enzymes, substrates, and reference compounds were from Sigma-Aldrich (St. Louis, MO, United States). […] Experimental conditions: K,Na-phosphate buffer (100 mM), 25°С, pH 7.5 for AChE and BChE and pH 8.0 for CES assay. Measurements were carried out on a BioRad Benchmark Plus microplate spectrophotometer (Hercules, CA, United States).
(§2) Test compounds were dissolved in DMSO; final concentration of solvent in the incubation mixture was 2% (v/v).

Human erythrocyte AChE = target: T1, Human erythrocyte AChE (Homo sapiens, UniProt P22303); assay: In vitro inhibition of AChE activity (spectrophotometric, ATCh iodide substrate); type: biochemical; settings: for Human erythrocyte AChE, (%) inhibition: compound concentration 20 µM, mean ± SEM, n = 3; for inhibition at 20 µM: read-out: Human erythrocyte AChE, (%) inhibition
T1 construct: Human erythrocyte AChE, (%); purchased Sigma-Aldrich; host or cells: human erythrocytes
T1 sequence (P22303 32-617 isoform P22303-2 limits assumed): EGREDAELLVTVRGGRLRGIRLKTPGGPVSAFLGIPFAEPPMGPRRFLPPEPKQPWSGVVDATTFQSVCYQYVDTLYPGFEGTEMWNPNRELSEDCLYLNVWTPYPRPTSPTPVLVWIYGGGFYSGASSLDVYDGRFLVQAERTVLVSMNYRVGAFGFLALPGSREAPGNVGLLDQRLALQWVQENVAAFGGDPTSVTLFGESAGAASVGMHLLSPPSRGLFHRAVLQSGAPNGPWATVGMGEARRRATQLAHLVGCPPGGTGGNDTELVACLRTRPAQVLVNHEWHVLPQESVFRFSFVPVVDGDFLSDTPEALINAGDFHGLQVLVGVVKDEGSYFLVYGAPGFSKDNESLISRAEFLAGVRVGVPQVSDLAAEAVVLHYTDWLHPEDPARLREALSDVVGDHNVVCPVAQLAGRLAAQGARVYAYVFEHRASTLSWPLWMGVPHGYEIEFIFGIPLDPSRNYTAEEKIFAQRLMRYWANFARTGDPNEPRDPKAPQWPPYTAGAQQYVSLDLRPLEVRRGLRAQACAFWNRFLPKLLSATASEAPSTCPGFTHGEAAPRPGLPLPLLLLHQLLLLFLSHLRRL
Method: as §1, §2

Equine serum BChE = target: T2, Equine serum BChE (Equus caballus, UniProt P81908); assay: In vitro inhibition of BChE activity (spectrophotometric, BTCh iodide substrate); type: biochemical; settings: for Equine serum BChE, (%) inhibition: compound concentration 20 µM, mean ± SEM, n = 3; for inhibition at 20 µM: read-out: Equine serum BChE, (%) inhibition
T2 construct: Equine serum BChE, (%); purchased Sigma-Aldrich; host or cells: equine serum
T2 sequence (P81908 whole entry): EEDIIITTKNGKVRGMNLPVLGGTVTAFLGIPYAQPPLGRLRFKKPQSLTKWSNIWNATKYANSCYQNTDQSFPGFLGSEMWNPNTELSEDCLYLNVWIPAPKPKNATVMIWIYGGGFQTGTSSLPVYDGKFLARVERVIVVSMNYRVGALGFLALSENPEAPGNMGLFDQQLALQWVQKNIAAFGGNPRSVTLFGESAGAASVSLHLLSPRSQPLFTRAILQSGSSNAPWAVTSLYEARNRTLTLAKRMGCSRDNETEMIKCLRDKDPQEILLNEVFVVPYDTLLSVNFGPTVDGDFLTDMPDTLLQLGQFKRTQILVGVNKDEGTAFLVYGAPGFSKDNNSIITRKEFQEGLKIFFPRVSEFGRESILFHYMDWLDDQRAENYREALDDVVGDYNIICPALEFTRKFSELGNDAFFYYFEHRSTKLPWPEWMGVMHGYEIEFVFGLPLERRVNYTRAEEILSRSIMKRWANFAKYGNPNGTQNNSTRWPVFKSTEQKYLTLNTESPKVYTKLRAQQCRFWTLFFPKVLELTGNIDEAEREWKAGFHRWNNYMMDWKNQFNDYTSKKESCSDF
Method: as §1, §2

β-amyloid (1-42) (Aβ42) = target: T3, β-amyloid (1-42) (Aβ42) (Homo sapiens, UniProt P05067); assay: Inhibition of Aβ42 self-aggregation, thioflavin T fluorescence method; type: biochemical; settings: Aβ42 50 µM, compound 100 µM, 24 h, 37°C; mean ± SEM, n = 3
T3 construct: purchased AnaSpec Inc
T3 sequence (P05067 672-713 limits assumed): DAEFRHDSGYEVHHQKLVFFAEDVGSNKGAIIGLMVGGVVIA
Method: Lyophilized HFIP-pretreated Aβ42 (AnaSpec Inc., 0.5 mg) was dissolved in DMSO to obtain a stable 500 μM solution. […] Myricetin and Propidium iodide in the same concentration were used as references.
Therefore, the decrease in ThT fluorescence in the presence of the studied compound correlates with its activity to inhibit the formation of amyloid aggregates.

BChE = target: T4, BChE (Equus caballus, UniProt P81908); assay: Kinetic studies of BChE inhibition (Lineweaver-Burk); type: biochemical, equine
T4 construct: Equine serum BChE, (%); purchased Sigma-Aldrich; host or cells: equine serum
T4 sequence (P81908 whole entry): as the sequence (P81908 whole entry) above
Method: Mechanism of BChE inhibition was assessed by a detailed analysis of enzyme kinetics with three increasing concentrations of inhibitor and six substrate concentrations as described in detail in [Makhaeva et al. (2017)].
Lineweaver-Burk plots-double reciprocal representations of Michaelis-Menten parameters-were used to assess the type of inhibition.

Compound | FRAP Fe3+-reducing activity, TE [1] | ABTS•+-scavenging activity, TEAC [2] | IC50 [2] | Porcine liver CES, (%) inhibition (Porcine liver CES) | Inhibition of Aβ42 self-aggregation, (%) (β-amyloid (1-42) (Aβ42)) | inhibition at 20 µM (Human erythrocyte AChE) | inhibition at 20 µM (Equine serum BChE) | inhibition at 100 µM (β-amyloid (1-42) (Aβ42)) | IC50 (Equine serum BChE) | other results
O=C1O[C@H]([C@@H](O)CO)C(O)=C1O [Ascorbic acid, reference compound] | 1.23 ± 0.11 TE | 0.97 ± 0.04 | 22.4 ± 2.2 µM | – | – | – | – | – | – | –
O=[N+]([O-])c1ccc(OP(=O)(O)Oc2ccc([N+](=O)[O-])cc2)cc1 [BNPP, reference compound] | – | – | – | 99.1 ± 0.93 ^e % | – | – | – | – | – | –
COP(=O)(OC)C1c2ccccc2Nc2ccccc21 [Compound 1a] | 1.60 ± 0.01 TE | 0.99 ± 0.04 | 21.3 ± 1.4 µM | n.а | 4.9 ± 0.4% | – | – | – | – | Human erythrocyte AChE, (%) inhibition (Human erythrocyte AChE): 5.3 ± 1.3%; Equine serum BChE, (%) inhibition (Equine serum BChE): 21.3 ± 1.7%
CCOP(=O)(OCC)C1c2ccccc2Nc2ccccc21 [Compound 1b] | 1.15 ± 0.01 TE | 0.97 ± 0.03 | 20.8 ± 1.3 µM | n.а | – | 4.4 ± 1.1% | 16.9 ± 1.5% | 8.1 ± 0.8% | – | –
O=P(Oc1ccccc1)(Oc1ccccc1)C1c2ccccc2Nc2ccccc21 [Compound 1c] | 1.13 ± 0.02 TE | 1.13 ± 0.05 | 17.8 ± 1.1 µM | 21.6 ± 1.7% | – | 6.3 ± 0.9% | – | 19.8 ± 1.5% | 48 ± 3.1 µM | –
O=P(OCc1ccccc1)(OCc1ccccc1)C1c2ccccc2Nc2ccccc21 [Compound 1d, 9-bis(benzyloxy)phosphoryl-9,10-dihydroacridine] | 0.97 ± 0.06 TE | 0.97 ± 0.04 | 20.8 ± 1.3 µM | 18.7 ± 1.4% | – | 7.6 ± 1.2% | – | 58.9 ± 4.7% | 2.9 ± 0.23 µM | type of BChE inhibition (BChE; Lineweaver-Burk analysis): mixed type of inhibition; Ki (BChE; steady state inhibition, read-out: competitive component (Ki) of BChE inhibition): 2220 ± 190 nM
O=P(CCc1ccccc1)(CCc1ccccc1)C1c2ccccc2Nc2ccccc21 [Compound 1e] | 1.10 ± 0.01 TE | 0.9 ± 0.03 | 21.8 ± 0.9 µM | 22.2 ± 1.7% | – | 8.8 ± 2% | – | 46.9 ± 4.2% | 3.22 ± 0.25 µM | time to reach the maximum degree of ABTS•+ radical binding [2]: 30 min
O=P(CCc1ccc(Cl)cc1)(CCc1ccc(Cl)cc1)C1c2ccccc2Nc2ccccc21 [Compound 1f] | 0.81 ± 0.02 TE | 0.80 ± 0.03 | 22.6 ± 0.7 µM | – | – | 6.4 ± 1% | – | 34.1 ± 2.7% | 21.7 ± 1.7 µM | time to reach the maximum degree of ABTS•+ radical binding [2]: 30 min
COP(=O)(OC)c1c2ccccc2nc2ccccc12 [Compound 2a] | 0.08 ± 0.02 TE | – | – | 4.3 ± 1.1% | 4.9 ± 0.4% | – | – | – | – | Human erythrocyte AChE, (%) inhibition (Human erythrocyte AChE): 9.1 ± 1.2%; Equine serum BChE, (%) inhibition (Equine serum BChE): 9.0 ± 1.4%
CCOP(=O)(OCC)c1c2ccccc2nc2ccccc12 [Compound 2b] | 0.07 ± 0.01 TE | – | – | 10.5 ± 1.3% | n.а | 10.4 ± 1.2% | 10.8 ± 1.5% | – | – | –
O=P(Oc1ccccc1)(Oc1ccccc1)c1c2ccccc2nc2ccccc12 [Compound 2c] | – | – | – | 27.6 ± 2.2% | – | 12.4 ± 1.4% | 32.7 ± 2.6% | 3.6 ± 0.3% | – | –
O=P(OCc1ccccc1)(OCc1ccccc1)c1c2ccccc2nc2ccccc12 [Compound 2d] | – | – | – | 20.4 ± 1.8% | n.а | 10.8 ± 1.5% | – | – | 6.9 ± 0.55 µM | times less effective BChE inhibitor than the corresponding dihydroacridine (1d) (Equine serum BChE; ratio of BChE IC50 values): 2.4
O=P(CCc1ccccc1)(CCc1ccccc1)c1c2ccccc2nc2ccccc12 [Compound 2e] | – | – | – | 13.5 ± 1.7% | n.а | 10.4 ± 1.3% | 25.7 ± 2% | – | – | –
O=P(CCc1ccc(Cl)cc1)(CCc1ccc(Cl)cc1)c1c2ccccc2nc2ccccc12 [Compound 2f] | – | – | – | 18.4 ± 1.4% | – | 15.2 ± 1.3% | 20.4 ± 1.6% | 11.2 ± 0.8% | – | –
CC[N+](C)(CC)CCC[n+]1c(-c2ccccc2)c2cc(N)ccc2c2ccc(N)cc21.[I-].[I-] [Propidium iodide, reference compound] | – | – | – | – | 90.7 ± 7.1% | – | – | – | – | –
Cc1c(C)c2c(c(C)c1O)CCC(C)(C(=O)O)O2 (centres unmarked) [Trolox, 6-hydroxy-2,5,7,8-tetramethylchroman-2-carboxylic acid, reference compound] | 1.0 TE | 1.0 | 20.1 ± 0.7 µM | – | – | – | – | – | – | –
